Measurements taken from patent US20240180800A1, “Oral Care Compositions Containing Stannous Ion Source” (Colgate-Palmolive Company, priority 2022, published 2024).
Each block holds one compound with its values, some of them ahead of it.

How the values were obtained:
Assay type in all cases: physicochemical
[1] = FTIR of SnF2-TSPP solution with antioxidant upon aging at 60° C.
Method: (§1) The effect of antioxidants on the stannous stability in the presence of tetrasodium pyrophosphate (TSPP) was examined. Samples of Sn(II) were prepared by dissolving TSPP and SnF2 in water with the final concentration of SnF2 equal to 2 wt. %. Antioxidant (butylated hydroxytoluene (BHT), butylated hydroxyanisole (BHA), or sodium ascorbyl phosphate (SAP)) was added to the samples with the molar ratio of SnF2:TSPP:antioxidant equal to 1:1:0.3. The pH of the solutions was adjusted with NaOH to pH 7. The solutions were not fully clear due to the high concentration of SnF2 and limited solubility of certain antioxidants. Some amount of the precipitate/undissolved material was evident in the vials.
Fourier transform infrared spectroscopy (FTIR): Infrared spectra were collected using a Bruker Vertex 70 FTIR spectrometer (Bruker Optics, Billerica, MA) equipped with a GladiATR diamond ATR accessory (Pike technologies, Madison, WI). The spectral range was […] and a resolution of 4 cm^−1 was used. All measurements were carried out at room temperature. The absorption spectrum of solution containing SnF2 and TSPP (herein after referred to as SnF2-TSPP) in the 850-1240 cm^−1 region at different time points: fresh, 1 week and 2 weeks aged at 60° C. was examined. […] The transformation of the complex was manifested in the peak shifts and intensity changes of phosphate bands. […]

[2] = Iodine titration of Sn(II) in SnF2-TSPP solution with antioxidant upon aging at 60° C.; details: for Sn(II) %: after 2 weeks of aging at 60° C.
Method: as §1
Iodine titration: The stability of Sn (II) was further examined by iodine titration assay. Titration measurements were performed through indirect titration. 2 M citric acid solution was added to the samples in excess and 0.1 N Iodine was added until the solutions turned light brown. The samples were covered with parafilm and aluminum foil and left mixing in the dark for 2 hours. Then, titration with 0.1 N sodium thiosulfate standard was performed using a 25 mL Titrette Bottletop Burette (BrandTech Scientific, Inc., Essex, CT, USA) until the solutions turned clear. Sn(II) concentration was calculated based on the amount of sodium thiosulfate and iodine used in the reaction. The amount of Sn(II) present in the SnF2-TSPP solution at different time points: fresh, 1 week and 2 weeks aged at 60° C. with and without the antioxidant (SAP, BHA, or BHT) was measured. The result is in good agreement with the FTIR result discussed above. The amount of Sn(II) was highest in the sample with SAP after 2 weeks of 60° C. aging.
(§2) In order to identify the optimal concentration of antioxidants (SAP and sodium ascorbate) that can increase stannous stability in aqueous solutions, samples of Sn(II) with TSPP and various concentrations of SAP or sodium ascorbate were tested for the stability of Sn(II). Samples of Sn(II) were prepared by dissolving TSPP and SnF2 in water with the final concentration of SnF2 equal to 2 wt %. Antioxidant (SAP or sodium ascorbate) was added to the samples with the molar ratio of SnF2:TSPP:antioxidant equal to 1:1:x, where x was between 0.05 and 0.3. The pH of the solutions was adjusted with NaOH to pH=7.
Iodine titration: The stability of Sn (II) was further examined by iodine titration assay. Titration measurements were performed as described in Example 1.

[3] = 119Sn NMR relative amount of Sn(II) in SnF2-TSPP solution with antioxidant upon aging at 60° C.; details: for Sn(II) left relative to fresh sample: SnF2:TSPP:antioxidant 1:1:0.3, pH 7, after 2 weeks of aging at 60° C.; for Sn(II) content relative to fresh sample: pH 7, after 2 weeks of aging at 60° C.
Method: as §1
Nuclear Magnetic Resonance (NMR): The stability of Sn (II) was further examined by Nuclear Magnetic Resonance (NMR). NMR measurements were performed on samples in the presence of 10% deuterium oxide (D20). All NMR spectra were acquired on a Bruker Avance spectrometer (Bruker-Biospin, Billerica, MA, USA) with a 5 mm liquid nitrogen cryogenic probe operating at 202 MHz for ^31P, and 186.5 MHz ^119Sn at 25° C. ^119Sn and ^31P NMR spectra were acquired on the samples of SnF2-TSPP with three antioxidants: SAP, BHA, or BHT. FIG. 3-5 show ^119Sn and ^31P NMR spectra of the samples upon aging. In the ^119Sn NMR spectra, the peak positioned at around −630 ppm corresponds to Sn(II) in solution at neutral pH. Once Sn(II) was oxidized to Sn(IV) upon aging, the Sn(II) peak intensity decreased and small Sn(IV) spikes appeared between −680 and −750 ppm. The relative amounts of Sn(II) compared to fresh sample were calculated by integrating the peak corresponding to Sn(II) in ^119Sn NMR spectra. The capacity of three […] to stabilize Sn(II) was compared by measuring the Sn(II) content in the samples. About 80% of Sn(II) was left in the samples in the presence of BHA and SAP after 2 weeks of aging at 60° C. BHT sample had 70% Sn(II) remaining after 2 weeks of aging. […] In the ^31P NMR spectra, the peak positioned at −8 ppm corresponds to TSPP.
as §2
Nuclear Magnetic Resonance (NMR): The stability of Sn (II) was further examined by Nuclear Magnetic Resonance (NMR). NMR measurements were performed as described in Example 1. ^119Sn and ^31P NMR spectra were acquired on the samples of SnF2-TSPP with SAP or sodium ascorbate at various SAP/Sn molar ratios, specifically between 0.05 and 0.3, upon aging at 60° C. FIGS. 9 and 10 show ^119Sn and ^31P NMR spectra of the samples upon aging. In the ^119Sn NMR spectra, the peak positioned at around −630 ppm corresponds to Sn(II) in solution at neutral pH. Once Sn(II) was oxidized to Sn(IV), the Sn(II) peak intensity decreased and small Sn(IV) spikes appeared between −680 and −750 ppm. […] The relative amounts of Sn(II) compared to fresh sample were quantified based on the Sn(II) NMR peak integral (FIG. 11A).

[4] = Head-space O2 consumption (differential pressure) during Sn(II) oxidation; details: 29 mM SnF2, 29 mM TSPP, SAP/Sn molar ratios 0.05 and 0.3, 25° C., about 6.5 hours, pH about 6.5
Method: Head-space O2 consumption: Stannous stability in presence of small amounts of SAP was further examined by measuring the rate of oxygen consumption during Sn(II) oxidation process. […] SnF2 was added last as a powder, and the flask was immediately scaled.

Compound: COc1ccc(O)c(C(C)(C)C)c1 [BHA, butylated hydroxyanisole]
change of phosphate vibrational bands / stability of stannous-pyrophosphate complex ([1]; SnF2:TSPP:antioxidant 1:1:0.3, pH 7, aged 2 weeks at 60° C.): improved the stability of stannous-pyrophosphate complex but were less effective than SAP
amount of Sn(II) remaining ([2]; SnF2:TSPP:antioxidant 1:1:0.3, pH 7, after 2 weeks of 60° C. aging, compared to SnF2-TSPP solution alone): positive effect on Sn(II) stability
Sn(II) left relative to fresh sample [3]: About 80%

amount of Sn(II) remaining ([2]; buffer, 336 h, pH 7): positive effect on Sn(II) stability
Sn(II) left relative to fresh sample [3]: 70%
Compound: Cc1cc(C(C)(C)C)c(O)c(C(C)(C)C)c1 [BHT, butylated hydroxytoluene]

amount of Sn(II) remaining ([2]; buffer, 336 h, pH 7): highest
Sn(II) left relative to fresh sample [3]: About 80%
Sn(II) content relative to fresh sample ([3]; higher SAP/Sn ratio (0.2, 0.3)): 72%
Sn(II) content relative to fresh sample ([3]; lower mole ratio of SAP/Sn (0.05, 0.1)): about 90%
head-space differential pressure change (O2 consumption) [4]: no significant pressure drop
Compound: O=C1O[C@H]([C@@H](O)CO)C([O-])=C1OP(=O)([O-])[O-].[Na+].[Na+].[Na+] [SAP, sodium ascorbyl phosphate]

Compound: O=C1O[C@H]([C@@H](O)CO)C([O-])=C1O.[Na+] [sodium ascorbate]
stability of stannous-pyrophosphate complex ([1]; antioxidant/Sn molar ratio 0.05 to 0.3, pH 7, fresh, 1 week and 2 weeks at 60° C.): increased the stability of the stannous-pyrophosphate complex
Sn(II) % ([2]; higher ascorbate/Sn ratio (0.2, 0.3)): 70-75%
Sn(II) % ([2]; lower ascorbate/Sn ratio (0.05, 0.1)): about 80%
